The text below walks through data of article PMC5706701, “Development of a homogenous high-throughput assay for inositol hexakisphosphate kinase 1 activity” (PLoS ONE, 2017).

The term IC50 denotes the concentration that gives 50% inhibition.

Where a name gives a salt, the structure may show the parent alone. Read-outs that look alike come from different tables or passages of the source.

Common to all, as to assay type: biochemical
In assay [1] the target is T1, Human IP6K1 (Homo sapiens, UniProt Q92551).
T1 construct: GST (N, cleaved yes); made in house; host or cells: C43 E. coli, pGEX-6P-2
T1 sequence (Q92551 whole entry): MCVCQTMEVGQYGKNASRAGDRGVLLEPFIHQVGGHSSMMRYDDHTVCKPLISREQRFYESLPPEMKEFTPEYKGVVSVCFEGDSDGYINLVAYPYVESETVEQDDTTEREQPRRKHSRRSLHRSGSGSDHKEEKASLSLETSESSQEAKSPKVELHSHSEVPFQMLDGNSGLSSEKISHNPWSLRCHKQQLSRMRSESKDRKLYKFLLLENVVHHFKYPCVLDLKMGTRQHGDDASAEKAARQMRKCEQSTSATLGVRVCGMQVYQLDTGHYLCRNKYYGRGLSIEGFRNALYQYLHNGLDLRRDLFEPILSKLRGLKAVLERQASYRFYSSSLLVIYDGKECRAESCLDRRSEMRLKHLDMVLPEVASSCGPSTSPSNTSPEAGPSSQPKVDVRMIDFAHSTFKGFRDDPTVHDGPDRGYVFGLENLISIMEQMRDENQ
Briefly: IP6K1 high-throughput screen of the Sigma LOPAC (ADP-Glo Max, single point). (In ADP-Glo the light output rises with the ADP produced.)

Another assay has as its target T2, human IP6K2 (Homo sapiens, UniProt Q9UHH9).
T2 construct: GST (N, cleaved yes); made in house; host or cells: C43 E. coli, pGEX-6P-2
T2 sequence (Q9UHH9 1-426): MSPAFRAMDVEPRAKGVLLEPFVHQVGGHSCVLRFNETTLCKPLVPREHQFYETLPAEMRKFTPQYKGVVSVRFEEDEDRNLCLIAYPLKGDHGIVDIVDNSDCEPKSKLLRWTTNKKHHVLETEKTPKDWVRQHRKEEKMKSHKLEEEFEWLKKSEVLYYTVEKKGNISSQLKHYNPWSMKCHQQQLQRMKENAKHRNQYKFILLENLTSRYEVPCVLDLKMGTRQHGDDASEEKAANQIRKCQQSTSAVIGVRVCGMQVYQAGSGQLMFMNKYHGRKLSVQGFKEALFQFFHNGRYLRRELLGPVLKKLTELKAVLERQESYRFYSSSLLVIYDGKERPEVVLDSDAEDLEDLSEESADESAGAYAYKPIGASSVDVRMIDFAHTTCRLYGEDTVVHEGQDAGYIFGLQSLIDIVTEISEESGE
Briefly: IP6K2 inhibition dose-response assay (ADP-Glo Max). The procedure: (§1) Human IP6K1 (NCBI accession# Q92551), human IP6K2 (NCBI accession# Q9UHH9), and human IP6K3 (NCBI accession# Q96PC2) were purified from C43 E. coli transformed with pGEX-6P-2 expression vector containing GST tagged IP6K1, IP6K2, or IP6K3. The bacteria were grown overnight in a starter culture containing LB (Lennox) and 100μg/mL ampicillin (Sigma). The starter culture was diluted 1:100 into LB (Lennox) and allowed to grow to an optical density of 0.8 at 37°C when protein expression was induced with 1mM IPTG (Calbiochem) for 5hrs. The cells were pelleted with 3000RCF at 4°C and frozen at -80°C. Later, the bacteria was re-suspended in lysis buffer (20mM Tris, 200mM NaCl, 5mM DTT, 1% Triton-X, 0.5% IPEGAL, 1mg/mL lysozyme, and 1 protease inhibitor tablet (Sigma) per 100mL buffer, pH 7.4) and rotated on an end over end shaker for 30 min at 4°C followed by sonication. […]
(§2) For the dose response assays, 7–10 serial 3-fold compound dilutions were prepared in DMSO and then each compound was diluted with assay buffer (50mM Tris, 10mM MgCl2, 2.5mM DTT, 0.02% Triton X-100, pH 6.9) to reach the desired inhibitor concentrations in 25% DMSO. […] Luminescence generated was read on a Tecan Infinite M100 Pro plate reader. Samples were run in quadruplicate and the data was analyzed using a […] variable slope inhibition parameter on GraphPad Prism 7. […]

Assay [2] concerns enzymes involved in the detection steps of the kit. Briefly: Counter-screen against the detection steps of the ADP-Glo Max kit (no enzyme, no IP6). As to conditions: 10μM compound, 25μM ADP and 975μM ATP. The procedure:
The Sigma LOPAC was obtained as 10mM DMSO stock solutions from the Johns Hopkins ChemCore facility. Each compound was first diluted to 50μM and 25% DMSO in assay buffer. The inhibition assay was performed as described above with 1μL of compound and 4μL of kinase master mix so that the final compound concentration was 10μM in 5% DMSO. […] Hits were determined based by the Z score, which is calculated as Z = (Xi-Xavg)/Sx, where Xi is the raw measurement on the i^th compound, Xavg and Sx are the mean and the standard deviation, respectively, of all measurements within the plate. Hits identified from the screen were repeated in the assay in quadruplicate for confirmation. These confirmed hits were then tested to determine if they inhibited the enzymes involved in the detection steps of the kit. Possible interference of the compounds was assessed by measuring the degree to which they inhibited the signal produced by a 25μM ADP in the presence of 975μM ATP. This experiment was run as described above for the inhibition assays in the absence of enzyme and IP6.
(In general: A counterscreen serves to expose hits that act by an unwanted route or on another target.)

For another assay, the target named is T3, human IP6K3 (Homo sapiens, UniProt Q96PC2).
T3 construct: GST (N, cleaved yes); made in house; host or cells: C43 E. coli, pGEX-6P-2
T3 sequence (Q96PC2 1-410): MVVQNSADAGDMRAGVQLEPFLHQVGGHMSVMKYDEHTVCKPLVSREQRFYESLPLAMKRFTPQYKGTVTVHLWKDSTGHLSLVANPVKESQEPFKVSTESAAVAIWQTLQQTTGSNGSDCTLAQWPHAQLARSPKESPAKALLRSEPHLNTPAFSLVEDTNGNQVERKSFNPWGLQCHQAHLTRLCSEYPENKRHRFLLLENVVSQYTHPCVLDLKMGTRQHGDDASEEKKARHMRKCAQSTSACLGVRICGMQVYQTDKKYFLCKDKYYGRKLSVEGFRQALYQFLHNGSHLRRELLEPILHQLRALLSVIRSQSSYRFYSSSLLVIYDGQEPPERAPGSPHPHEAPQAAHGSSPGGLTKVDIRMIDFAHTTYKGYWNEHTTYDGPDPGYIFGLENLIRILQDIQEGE
The experiment in a line: IP6K3 inhibition dose-response assay (ADP-Glo Max). The protocol:
as §1, §2

Assay [3] has as its target T1, Human IP6K1. Briefly: Inositol polyphosphate separation by PAGE (5PP-IP5 production by IP6K1). As to conditions: 10μM inhibitor, 1mM ATP, 250μM IP6, 60nM IP6K1, 2 hours, 37°C.
Assay [4] concerns the target T1, Human IP6K1. Briefly: IP6K1 inhibition dose-response assay (ADP-Glo Max).
Where [5] appears, read: LOPAC single-point screen, ADP-Glo Max luminescence raw signal per well.
Where [6] appears, read: LOPAC single-point screen, Z-score relative to plate average and StDev.
Setting [7] is: Sigma LOPAC single-point screen, ADP-Glo Max raw signal per well.
Where [8] appears, read: Sigma LOPAC single-point screen, Z-score from plate average and StDev.
[9] abbreviates: LOPAC single-point screen, ADP-Glo Max raw signal per well.
Setting [10] is: LOPAC single-point screen, Z-score against plate average and StDev.
Setting [11] is: LOPAC single-point screen, Z-score from raw signal with plate average and StDev.

For the compound `O=c1c(O)c(-c2cc(O)c(O)c(O)c2)oc2cc(O)cc(O)c12` [Myricetin], on Human IP6K1 [1] (setting [5]), the “Raw Signal” value is on record as 8540. Moreover, at Human IP6K1 [1] (single point 100μM compound, 62.5μM ATP), the “Inhibition of enzyme activity in initial LOPAC screen” value is on record as 100%. Further, the IC50 at human IP6K2 (1mM ATP, 100μM IP6, 7.5nM IP6K2, 30 minutes, 37°C, read-out: IC50 IP6K2) turned out to be 23.4 ± 1.1 µM; on human IP6K3 (1mM ATP, 100μM IP6, 120nM IP6K3, 120 minutes, 37°C, read-out: IC50 IP6K3), 4.93 ± 1.14 µM. The “Signal loss in counter-screen of detection steps” value in assay [2] is “significantly inhibit the secondary reagents”.
On to `NC(Cc1cc(O)c(O)cc1O)C(=O)O` (racemic) [6-Hydroxy-DL-Dopa], for which the “Raw Signal” value at Human IP6K1 [1] (setting [5]) is given as 10170. At Human IP6K1 [1] (setting [6]), this compound registered a Z-score of -9.138. The IC50 was 1.66 ± 1.06 µM at human IP6K2, 11.1 ± 1.13 µM against human IP6K3 and 1.84 ± 1.03 µM at Human IP6K1 [4]. In assay [2], the “Signal loss in counter-screen of detection steps” value is given as “neither TNP nor 6-Hydroxy-DL-Dopa showed significant signal loss”. Also, the “Inhibition of 5PP-IP5 production by IP6K1 (PAGE, Toluidine Blue)” value at Human IP6K1 [3] is “inhibited below the limit of detection”.
As to `O=C(O)CCc1nc(-c2ccccc2)c(-c2ccccc2)o1` [Oxaprozin], at Human IP6K1 [1] (setting [7]), the “Raw Signal” value came to 57771. Moreover, at Human IP6K1 [1] (setting [8]), the Z-score is recorded as 0.5675.
On to `CCCn1c(=O)c2[nH]c(-c3ccc(S(=O)(=O)O)cc3)nc2n(CCC)c1=O` [1,3-Dipropyl-8-p-sulfophenylxanthine], for which the “Raw Signal” value on Human IP6K1 [1] (setting [5]) is 54862. Moreover, the Z-score at Human IP6K1 [1] (setting [6]) is -0.5374.
For `CN(C)CCC=C1c2ccccc2CCc2ccccc21` [Amitriptyline hydrochloride], the “Raw Signal” value on Human IP6K1 [1] (setting [5]) is listed as 54808. On Human IP6K1 [1] (setting [6]), the Z-score is -0.5469.
Take `N#Cc1c(-c2ccccc2)no[n+]1[O-]` [4-Phenyl-3-furoxancarbonitrile]: the “Raw Signal” value at Human IP6K1 [1] (setting [9]) worked out at 53966. For the same compound, the Z-score on Human IP6K1 [1] (setting [10]) is given as -0.07183.
Take `NC(CCCP(=O)(O)O)C(=O)O` (racemic) [(±)-2-Amino-5-phosphonopentanoic acid]: the “Raw Signal” value at Human IP6K1 [1] (setting [7]) came to 60299. The same compound had a Z-score at Human IP6K1 [1] (setting [8]) of 0.4202.
Regarding `NC(Cc1cccc(-c2ccccc2CP(=O)(O)O)c1)C(=O)O` (centres unmarked), the “Raw Signal” value at Human IP6K1 [1] (setting [9]) amounted to 56365. For the same compound, on Human IP6K1 [1] (setting [10]), the Z-score is recorded as 0.06629.
As to `N.N.[Cl][Pt][Cl]` [Cisplatin], the “Raw Signal” value on Human IP6K1 [1] (setting [5]) is 49642. In addition, the Z-score on Human IP6K1 [1] (setting [6]) is -0.7984.
Turning to `CCn1cnc2c(Nc3cccc(Cl)c3)nc(N[C@@H]3CCCC[C@@H]3N)nc21.Cl` [CGP-74514A hydrochloride], on Human IP6K1 [1] (setting [9]), the “Raw Signal” value is on record as 58874. The compound further yielded a Z-score on Human IP6K1 [1] (setting [10]) of 0.1692.
Regarding `Br.COc1ccc2c(c1)[C@]13CCCC[C@@H]1[C@H](C2)N(C)CC3.O`, the “Raw Signal” value at Human IP6K1 [1] (setting [9]) was 54296. Further, the Z-score at Human IP6K1 [1] (setting [11]) is recorded as -0.1769.
Take `Br.CN=c1nc(-c2ccccc2)n(-c2ccccc2)s1` [SCH-202676 hydrobromide]: the “Raw Signal” value at Human IP6K1 [1] (setting [5]) is on record as 51247. The compound further showed a Z-score on Human IP6K1 [1] (setting [6]) of -0.928.
Consider `COc1ccc(OC)c(C(O)C(C)N)c1` (centres unmarked) [Methoxamine hydrochloride], for which the “Raw Signal” value on Human IP6K1 [1] (setting [7]) stood at 57572. The compound also gave a Z-score at Human IP6K1 [1] (setting [8]) of 0.5341.
`CCCOc1ccccc1-c1nc2nn[nH]c2c(=O)[nH]1` [Zaprinast]: on Human IP6K1 [1] (setting [9]), the “Raw Signal” value came to 56198. For the same compound, the Z-score at Human IP6K1 [1] (setting [10]) was 0.03384.
Take `Ic1ccccc1CNC1C2CCN(CC2)C1C(c1ccccc1)c1ccccc1.O=C(O)C(=O)O` [L-703,606 oxalate]: the “Raw Signal” value on Human IP6K1 [1] (setting [9]) amounted to 52840. The compound further registered a Z-score on Human IP6K1 [1] (setting [11]) of -0.261.
For `CC1=NN=C(c2ccc(N)cc2)c2cc3c(cc2C1)OCO3.Cl` [GYKI 52466 hydrochloride], the “Raw Signal” value at Human IP6K1 [1] (setting [5]) worked out at 61943. In addition, on Human IP6K1 [1] (LOPAC single-point screen, Z-score from plate average and StDev), the Z-score stood at 1.376.
Take `C/C=C1\C(=O)C[C@H]2[C@@H]3CCC4=CC(=O)CC[C@]4(C)[C@H]3CC[C@]12C` [(Z)-Gugglesterone]: the “Raw Signal” value on Human IP6K1 [1] (setting [5]) was 49571. This compound had a Z-score at Human IP6K1 [1] (setting [6]) of -1.1365.
As for `CCCCCC(O)CCCC(=O)O.[Na]` (centres unmarked) [5-hydroxydecanoic acid sodium], the “Raw Signal” value on Human IP6K1 [1] (setting [9]) is on record as 53435. On Human IP6K1 [1] (setting [11]), this compound displayed a Z-score of -0.3518.
Consider `OC(CCN1CCCCC1)(c1ccccc1)C1CCCCC1` (centres unmarked) [Trihexyphenidyl hydrochloride], for which, at Human IP6K1 [1] (setting [7]), the “Raw Signal” value came to 57771. Moreover, the Z-score on Human IP6K1 [1] (setting [8]) was found to be 0.3394.
Take `CSc1ccc2c(c1)N(CCC1CCCCN1C)c1ccccc1S2` (centres unmarked) [Thioridazine hydrochloride]: at Human IP6K1 [1] (setting [9]), the “Raw Signal” value amounted to 57676. Moreover, the Z-score on Human IP6K1 [1] (setting [10]) came to 0.321.
With `CC(C)C[C@H](NC(=O)[C@@H](O)[C@H](N)Cc1ccccc1)C(=O)O` [Bestatin hydrochloride], the “Raw Signal” value at Human IP6K1 [1] (setting [9]) stood at 54023. This compound also returned a Z-score on Human IP6K1 [1] (setting [11]) of -0.2323.
As to `CC(CCc1ccc(O)cc1)NCCc1ccc(O)c(O)c1` (centres unmarked) [Dobutamine hydrochloride], the “Raw Signal” value at Human IP6K1 [1] (setting [5]) amounted to 52494. For the same compound, on Human IP6K1 [1] (setting [6]), the Z-score is on record as -0.5429.
Turning to `CCCCCN(CCCCC)C(=O)C(CCC(=O)O)NC(=O)c1ccc(Cl)c(Cl)c1` (centres unmarked) [Lorglumide sodium], the Z-score at Human IP6K1 [1] (setting [10]) amounted to 0.04041.
